The source of these data is patent US20130012404A1, “CULTURE METHOD, EVALUATION METHOD AND STORAGE METHOD FOR CANCER-TISSUE-DERIVED CELL MASS OR AGGREGATED CANCER CELL MASS” (Osaka Prefectural Hospital Organization, priority 2010, published 2013).

Experiment [1] concerns aggregated cancer cell mass. As to the kind of experiment: Drug sensitivity test with doxorubicin on aggregated cancer cell masses embedded in collagen gel. The experiment is classed as cell-based. The note with it: doxorubicin 0.1, 1 and 10 μM; day 8 after culture initiation vs day 0; FIG. 14. On the procedure: Using doxorubicin that is known to exert an antitumor effect by suppressing the biosynthesis of both DNA and RNA as a result of inhibiting the reaction of DNA polymerase, RNA polymerase, and topoisomerase II due to the insertion of doxorubicin between the base pairs of DNA of tumor cells, a drug sensitivity test was carried out by the sample of Example 12. The test was carried out by embedding the aggregated cancer cell mass (×10 each) in collagen gel (CellMatrix type IA (Nitta Gelatin):5×DMEM (Gibco; 12100-038):buffer solution for gel reconstruction (50 mM NaOH, 260 mM NaHCO3, 200 mM HEPES)=7:2:1) and carrying out culture in 1 cc of a STEMPRO human ES cell serum-free medium (Gibco) under the culture conditions of a temperature of 37° C. in 5% CO2 incubator. In addition, doxorubicin was applied at a concentration of 0.1 μM, 1 μM, and 10 μM, and the states on day 0 and on day […] were compared for evaluation. An increasing rate of the area of the aggregated cancer cell mass was relatively expressed when an increasing rate of the area of the cell mass in the culture without application of a drug was determined to be 1.

The subject of experiment [2] is cell mass derived from the cancer tissue (surgical specimens of human colon cancer, Example 2). Nature of the experiment: Drug sensitivity test with 5-FU on cancer tissue-derived cell masses embedded in collagen gel. The note with it: 5-FU 0.01, 0.1, 1, 10 and 100 μg/ml; day 8 after culture vs day 0; FIG. 4. The experiment is classed as cell-based. The method, then: Using 5-FU which is known to inhibit DNA synthesis by binding to a thymidylic acid synthetase involved in the metabolism process necessary for DNA synthesis, a drug sensitivity test on a sample of Example 2 was carried out. The test was carried out by embedding the cell masses (×10 each) derived from the cancer tissue in a collagen gel (CellMatrix type IA (Nitta Gelatin Inc.):5×DMEM (Gibco; 12100-038):buffer solution for gel reconstruction (50 mM NaOH, 260 mM NaHCO3, 200 mM HEPES)=7:2:1), and culturing in 1 cc of STEMPRO serum-free medium (Gibco) for human ES cells in an incubator under the culture conditions of 37° C. and 5% CO2. In addition, 5-FU was applied at a concentration of 0.01 μg/ml, 0.1 μg/ml, 1 μg/ml, 10 μg/ml, and 100 μg/ml, and the states of the cells on days 0 and 8 after culture were compared for evaluation. An increasing rate of the area of the cell mass derived from the cancer tissue was expressed relative to 1 of an increasing rate of the area of the cell mass in the culture without application of a drug.

As for `COc1cccc2c1C(=O)c1c(O)c3c(c(O)c1C2=O)C[C@@](O)(C(=O)CO)C[C@@H]3O[C@H]1C[C@H](N)[C@H](O)[C@H](C)O1` [doxorubicin], the “proliferation of the cancer cell (increasing rate of the area of the aggregated cancer cell mass relative to 1 without drug)” value in experiment [1] is listed as “concentration-dependently suppressed”.

Turning to `O=c1[nH]cc(F)c(=O)[nH]1` [5-FU], the “proliferation of the cancer cell (increasing rate of the area of the cell mass relative to 1 without drug)” value in experiment [2] is “concentration-dependently suppressed”.
